Test results taken from US20260062422A1 (Halda Therapeutics OpCo, Inc., priority 2022, published 2026).

What was measured:
[1] = tested on: VCaP cells; test: Cellular growth inhibition assay for VCaP cells, CellTiter-Glo; format: cell-based, human; conditions: 72 hours treatment, CellTiter-Glo 2.0
Method: VCaP cells were purchased from American Type Cell Culture (ATCC Cat #CRL2876) and then seeded on poly-D-lysine coated, black clear-bottom 384-well plates at 5000/well in 25 μL Dulbecco's Modified Eagle Medium (DMEM) supplemented with 10% w/w Fetal bovine serum (FBS) and 1% w/w Pen-Strep. Pen-Strep is a commercially available mixture of penicillin G and streptomycin, which is used in mammalian cell culture media to prevent bacterial contamination. Dulbecco's Modified Eagle Medium (DMEM) supplemented with 10% w/w fetal bovine serum (FBS) and 1% w/w Pen-Strep is herein referred to as Treatment Medium. Following seeding of cells in the plates, the plates were spun at 300×g for 30 seconds, then equilibrated to room temperature for 30 minutes, and then deposited in a humidified tissue culture incubator maintained at 37° C. with 5% CO2.
(§1) At 24 hours after seeding of the cells, dilutions of test compound were prepared in DMSO and dissolved in Treatment Medium, to achieve a final DMSO concentration of 0.5% w/w, thereby providing the Test Compound Solution. A 25 μL aliquot of the Test Compound Solution was added to cells in the well plates. An equal volume of a solution containing DMSO and Treatment Medium was used as a negative control. Following treatment of cells with Test Compound Solution or said equal volume of a solution containing DMSO and Treatment Medium, the plates were spun at 300×g for 30 seconds, and then left in an incubator for 72 hours.
(§2) At the end of the treatment duration, cell viability was quantified with CellTiter-Glo 2.0 reagent (Promega Cat #G9243). For this purpose, plates were equilibrated to room temperature for 30 minutes, and then 25 μL of CellTiter-Glo 2.0 reagent was added to cells in the plate wells. Plates were then agitated on a shaker for two minutes at 500 rpm and subsequently incubated at room temperature for 10 minutes. Following incubation, the plates were spun at 3000×g for 30 seconds, then sealed with an optical adhesive cover, and luminescence readings were measured with an EnVision Plate Reader.
(§3) Data was normalized using zero luminescence for baseline. A four-parameter non-linear regression curve fit was applied to dose-response data in GraphPad Prism data analysis software to determine the half-maximal growth inhibitory concentration (GI50) for each test compound.

[2] = tested on: T47D cells; test: Cellular growth inhibition assay for T47D cells, CellTiter-Glo; format: cell-based, human; conditions: 72 hours treatment, CellTiter-Glo 2.0 cell viability
Method: T47D cells were purchased from American Type Cell Culture (ATCC Cat #HTB-133) and then seeded on poly-D-lysine coated, black clear-bottom 384-well plates at 3000/well in 25 μL Dulbecco's Modified Eagle Medium (DMEM) supplemented with 10% w/w Fetal bovine serum (FBS), 0.2 units/mL recombinant human insulin (Gibco Cat #12585014), and 1% w/w Pen-Strep. Pen-Strep is a commercially available mixture of penicillin G and streptomycin, which is used in mammalian cell culture media to prevent bacterial contamination. Dulbecco's Modified Eagle Medium (DMEM) supplemented with 10% w/w fetal bovine serum (FBS), 0.2 units/mL recombinant human insulin, and 1% w/w Pen-Strep is herein referred to as Treatment Medium. Following seeding of cells in the plates, the plates were spun at 300×g for 30 seconds, then equilibrated to room temperature for 30 minutes, and then deposited in a humidified tissue culture incubator maintained at 37° C. with 5% CO2.
as §1
as §2, with “Reader (Perkin Elmer).” for “Reader.”
as §3

Row | Structure (SMILES) | GI50 ([1]; Homo sapiens, VCaP, 72 h) [nM] | GI50 ([2]; Homo sapiens, T47D, 72 h) [nM] | GI50 [1] [nM] | GI50 [2] [nM]
1 | Cc1sc2c(c1C)C(c1ccc(C[C@H]3CC[C@@H]4CN(c5ncc(C(=O)N[C@H]6C(C)(C)[C@H](Oc7ccc(C#N)c(Cl)c7)C6(C)C)cn5)CCN4C3)cc1)=N[C@@H](Cc1ncco1)c1nnc(C)n1-2 [Compound I-304] | < 500 | > 3000 |  | 
2 | Cc1sc2c(c1C)C(c1ccc(C[C@@H]3CC[C@@]4(C3)CN(c3ncc(C(=O)N[C@H]5C(C)(C)[C@H](Oc6ccc(C#N)c(Cl)c6)C5(C)C)cn3)CCO4)cc1)=N[C@@H](Cc1ncco1)c1nnc(C)n1-2 [Compound I-309] | > 3000 | > 3000 |  | 
3 | Cc1sc2c(c1C)C(c1ccc(C[C@@H]3CC[C@]4(C3)CN(c3ncc(C(=O)N[C@H]5C(C)(C)[C@H](Oc6ccc(C#N)c(Cl)c6)C5(C)C)cn3)CCO4)cc1)=N[C@@H](Cc1ncco1)c1nnc(C)n1-2 [Compound I-308] | > 3000 | > 3000 |  | 
4 | Cc1sc2c(c1C)C(c1ccc(CCO[C@@H]3CCCN(c4ncc(C(=O)N[C@H]5C(C)(C)[C@H](Oc6ccc(C#N)c(Cl)c6)C5(C)C)cn4)C3)cc1)=N[C@@H](Cc1ncco1)c1nnc(C)n1-2 [Compound I-322] | < 500 | < 500 |  | 
5 | Cc1sc2c(c1C)C(c1ccc(C[C@@H]3CC[C@@H]4CN(c5ncc(C(=O)N[C@H]6C(C)(C)[C@H](Oc7ccc(C#N)c(Cl)c7)C6(C)C)cn5)CCN4C3)cc1)=N[C@H](Cc1ncco1)c1nnc(C)n1-2 [Compound I-307] | < 500 | < 500 |  | 
6 | Cc1sc2c(c1C)C(c1ccc(CCC[C@@H]3CCCN(c4ncc(C(=O)N[C@H]5C(C)(C)[C@H](Oc6ccc(C#N)c(Cl)c6)C5(C)C)cn4)C3)cc1)=N[C@@H](Cc1ncco1)c1nnc(C)n1-2 [Compound I-320] | < 500 | < 500 |  | 
7 | Cc1sc2c(c1C)C(c1ccc(C[C@H]3CC[C@]4(C3)CN(c3ncc(C(=O)N[C@H]5C(C)(C)[C@H](Oc6ccc(C#N)c(Cl)c6)C5(C)C)cn3)CCO4)cc1)=N[C@@H](Cc1ncco1)c1nnc(C)n1-2 [Compound I-310] | < 500 | < 500 |  | 
8 | Cc1sc2c(c1C)C(c1ccc(CCC[C@H]3CCCN(c4ncc(C(=O)N[C@H]5C(C)(C)[C@H](Oc6ccc(C#N)c(Cl)c6)C5(C)C)cn4)C3)cc1)=N[C@@H](Cc1ncco1)c1nnc(C)n1-2 [Compound I-321] | < 500 | < 500 |  | 
9 | Cc1sc2c(c1C)C(c1ccc(C(=O)N3CCC[C@@H](Cc4ncc(C(=O)N[C@H]5C(C)(C)[C@H](Oc6ccc(C#N)c(Cl)c6)C5(C)C)cn4)C3)cc1)=N[C@@H](Cc1ncco1)c1nnc(C)n1-2 [Compound I-319] |  |  | 1500 to 3000 | > 3000
10 | Cc1sc2c(c1C)C(c1ccc(OC3CCN(C4CCN(c5ncc(C(=O)N[C@H]6C(C)(C)[C@H](Oc7ccc(C#N)c(Cl)c7)C6(C)C)cn5)CC4)CC3)cc1)=N[C@@H](Cc1ncco1)c1nnc(C)n1-2 [Compound I-313] | < 500 | < 500 |  | 
11 | Cc1sc2c(c1C)C(c1ccc(C(=O)N3CCC[C@@H](Cc4ncc(C(=O)N[C@H]5C(C)(C)[C@H](Oc6ccc(C#N)c(Cl)c6)C5(C)C)cn4)C3)cc1)=N[C@@H](Cc1ncco1)c1nnc(C)n1-2 [Compound I-318] | > 3000 | > 3000 |  | 
12 | Cc1sc2c(c1C)C(c1ccc(C[C@@H]3CC[C@@H]4CN(c5ncc(C(=O)N[C@H]6C(C)(C)[C@H](Oc7ccc(C#N)c(Cl)c7)C6(C)C)cn5)CCN4C3)cc1)=C[C@@H](Cc1ncco1)c1nnc(C)n1-2 [Compound I-305] | > 3000 | 500 to 1500 |  | 
13 | Cc1sc2c(c1C)C(c1ccc(CCO[C@H]3CCCN(c4ncc(C(=O)N[C@H]5C(C)(C)[C@H](Oc6ccc(C#N)c(Cl)c6)C5(C)C)cn4)C3)cc1)=N[C@@H](Cc1ncco1)c1nnc(C)n1-2 [Compound I-323] | < 500 | < 500 |  | 
14 | Cc1sc2c(c1C)C(c1ccc(N3CCC[C@H](C(=O)N4CCCC4c4ncc(C(=O)N[C@H]5C(C)(C)[C@H](Oc6ccc(C#N)c(Cl)c6)C5(C)C)cn4)C3)cc1)=N[C@H](Cc1ncco1)c1nnc(C)n1-2 (stereo partly drawn) [Compound I-315] | > 3000 | > 3000 |  | 
15 | Cc1sc2c(c1C)C(c1ccc(C3CC3C3CC4(CCN(c5ncc(C(=O)N[C@H]6C(C)(C)[C@H](Oc7ccc(C#N)c(Cl)c7)C6(C)C)cn5)CC4)C3)cc1)=N[C@@H](C)c1nnc(C)n1-2 (stereo partly drawn) [Compound I-537] |  | > 3000 |  | 
16 | Cc1sc2c(c1C)C(c1ccc(CNC(=O)Cc3ncc(C(=O)N[C@H]4C(C)(C)[C@H](Oc5ccc(C#N)c(Cl)c5)C4(C)C)cn3)cc1)=N[C@@H](Cc1ncco1)c1nnc(C)n1-2 [Compound I-316] | < 500 | 500 to 1500 |  | 
17 | Cc1sc2c(c1C)C(c1ccc(N3CC(C4CCN(c5ccc(C(=O)N[C@H]6C(C)(C)[C@H](Oc7ccc(C#N)c(Cl)c7)C6(C)C)nc5)CC4)C3)cc1)=N[C@@H](Cc1ncco1)c1nnc(C)n1-2 [Compound I-564] |  | < 500 |  | 
18 | Cc1sc2c(c1C)C(c1ccc(OC3CC4(C3)CC3(CCN(c5ccc(C(=O)N[C@H]6C(C)(C)[C@H](Oc7ccc(C#N)c(Cl)c7)C6(C)C)nc5)CC3)C4)cc1)=N[C@@H](C)c1nnc(C)n1-2 [Compound I-549] |  | > 3000 |  | 
19 | Cc1sc2c(c1C)C(c1ccc(CC3CC4(CCN(c5cnc(C(=O)N[C@H]6C(C)(C)[C@H](Oc7ccc(C#N)c(Cl)c7)C6(C)C)cn5)CC4)C3)cc1)=NC1(CC1)c1nnc(C)n1-2 [Compound I-520] |  | < 500 |  | 
20 | Cc1sc2c(c1C)C(c1ccc(C3CC(CC4CCN(c5ncc(C(=O)N[C@H]6C(C)(C)[C@H](Oc7ccc(C#N)c(Cl)c7)C6(C)C)cn5)CC4)C3)cc1)=NC(C)c1nnc(C)n1-2 (stereo partly drawn) [Compound I-509] |  |  |  | < 500
21 | Cc1sc2c(c1C)C(c1ccc(N3CC(CC4CN(c5cnc(C(=O)N[C@H]6C(C)(C)[C@H](Oc7ccc(C#N)c(Cl)c7)C6(C)C)cn5)C4)C3)cc1)=NC1(CC1)c1nnc(C)n1-2 [Compound I-527] |  | > 3000 |  | 
22 | Cc1sc2c(c1C)C(c1ccc(N3CC(C4CCN(c5cnc(C(=O)N[C@H]6C(C)(C)[C@H](Oc7ccc(C#N)c(Cl)c7)C6(C)C)cn5)CC4)C3)cc1)=N[C@@H](Cc1ncco1)c1nnc(C)n1-2 [Compound I-558] |  | < 500 |  | 
23 | Cc1sc2c(c1C)C(c1ccc(N3CC(C4CCN(c5ccc(C(=O)N[C@H]6C(C)(C)[C@H](Oc7ccc(C#N)c(Cl)c7)C6(C)C)nc5)CC4)C3)cc1)=NC1(CC1)c1nnc(C)n1-2 [Compound I-533] |  | 1500 to 3000 |  | 
24 | Cc1sc2c(c1C)C(c1ccc(C#CC3CC(Cc4ncc(C(=O)N[C@H]5C(C)(C)[C@H](Oc6ccc(C#N)c(Cl)c6)C5(C)C)cn4)C3)cc1)=NC(Cc1ncco1)c1nnc(C)n1-2 (stereo partly drawn) [Compound I-561] |  |  |  | < 500
25 | Cc1sc2c(c1C)C(c1ccc(-n3cnc(C4CCN(c5ncc(C(=O)N[C@H]6C(C)(C)[C@H](Oc7ccc(C#N)c(Cl)c7)C6(C)C)cn5)CC4)n3)cc1)=N[C@@H](Cc1ncco1)c1nnc(C)n1-2 [Compound I-497] |  | < 500 |  | 
26 | Cc1sc2c(c1C)C(c1ccc(N3CC(CC4CN(c5ccc(C(=O)N[C@H]6C(C)(C)[C@H](Oc7ccc(C#N)c(Cl)c7)C6(C)C)cn5)C4)C3)cc1)=NC1(CC1)c1nnc(C)n1-2 [Compound I-532] |  | > 3000 |  | 
27 | Cc1sc2c(c1C)C(c1ccc(N3CC(C4CCN(c5cnc(C(=O)N[C@H]6C(C)(C)[C@H](Oc7ccc(C#N)c(Cl)c7)C6(C)C)cn5)CC4)C3)cc1)=NC1(CC1)c1nnc(C)n1-2 [Compound I-528] |  | > 3000 |  | 
